Assays:
Assay in all cases: relative viability (nuclei count vs DMSO), 5 days (fraction); higher = more cells survive
BAM7 + Foretinib = compound: CCOC1=CC=CC=C1N=NC2=C(NN(C2=O)C3=NC(=CS3)C4=CC=CC=C4)C [BAM7] + COc1cc2c(Oc3ccc(NC(=O)C4(C(=O)Nc5ccc(F)cc5)CC4)cc3F)ccnc2cc1OCCCN1CCOCC1 [Foretinib] (partner 0.25 µM)
Method in brief: (§1)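 After 5 days of treatment, lung cancer cells in 1536-well plates were fixed and stained in a single step (final 0.05% Triton X-100, 1% formaldehyde, 1 ug/ml Hoechst) and their nuclei counted on 4× images. Treatment had been applied by pin tool the day after seeding as one drug alone or as a fixed anchor-drug dose with five library-drug doses (not always all listed) in √10 steps. Relative viability is the nuclei count of treated wells divided by that of vehicle wells, and values are medians of duplicate plates.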

BAM7 + Crizotinib = compound: CCOC1=CC=CC=C1N=NC2=C(NN(C2=O)C3=NC(=CS3)C4=CC=CC=C4)C [BAM7] + C[C@@H](Oc1cc(-c2cnn(C3CCNCC3)c2)cnc1N)c1c(Cl)ccc(F)c1Cl [Crizotinib] (partner 1 µM)
Method in brief: as §1

[1] = compound: CCn1c(-c2nonc2N)nc2c(C#CC(C)(C)O)ncc(OC[C@H]3CCCNC3)c21 + CC(=O)Nc1cccc(-n2c(=O)n(C3CC3)c(=O)c3c(Nc4ccc(I)cc4F)n(C)c(=O)c(C)c32)c1 [Trametinib] (partner 0.02 µM)
Method in brief: as §1

[2] = compound: CCn1c(-c2nonc2N)nc2c(C#CC(C)(C)O)ncc(OC[C@H]3CCCNC3)c21 + CS(=O)(=O)N1CCN(Cc2cc3nc(-c4cccc5[nH]ncc45)nc(N4CCOCC4)c3s2)CC1 [Pictilisib] (partner 1 µM)
Method in brief: as §1

| Cell Line | relative viability (BAM7 + Foretinib; first compound 0.5 µM) | relative viability (BAM7 + Foretinib; first compound 5 µM) | relative viability (BAM7 + Foretinib; first compound 15.81 µM) | relative viability (BAM7 + Foretinib; first compound 50 µM) | relative viability (BAM7 + Crizotinib; first compound 0.5 µM) | relative viability (BAM7 + Crizotinib; first compound 5 µM) | relative viability (BAM7 + Crizotinib; first compound 15.81 µM) | relative viability (BAM7 + Crizotinib; first compound 50 µM) | relative viability ([1]; first compound 0.01 µM) | relative viability ([1]; first compound 0.03162 µM) | relative viability ([1]; first compound 0.1 µM) | relative viability ([1]; first compound 0.3162 µM) | relative viability ([1]; first compound 1 µM) | relative viability ([2]; first compound 0.01 µM) | relative viability ([2]; first compound 0.03162 µM) | relative viability ([2]; first compound 0.1 µM) | relative viability ([2]; first compound 0.3162 µM) | relative viability ([2]; first compound 1 µM) |
| --- | --- | --- | --- | --- | --- | --- | --- | --- | --- | --- | --- | --- | --- | --- | --- | --- | --- | --- |
| BEN | 0.694 | 0.639 | 0.634 | 0.618 | 0.866 | 0.977 | 0.845 | 0.83 | 0.973 | 1.25 | 0.986 | 1.03 | 1.12 | 0.565 | 0.584 | 0.489 | 0.574 | 0.596 |
| EMC-BAC-2 | 0.974 | 1.04 | 0.985 | 1.05 | 0.849 | 0.852 | 0.74 | 0.857 | 0.864 |  | 1.08 | 0.848 | 0.913 | 0.563 | 0.51 | 0.497 | 0.493 | 0.528 |
| LU99A | 0.787 | 0.888 | 0.828 | 0.843 | 0.602 | 0.542 | 0.567 | 0.555 | 0.517 | 0.611 | 0.6 | 0.524 | 0.525 | 0.33 | 0.353 | 0.294 | 0.293 | 0.324 |
| ABC-1 | 1.05 | 1.17 | 0.95 | 1.19 | 1.49 | 1.34 | 0.987 | 1.21 |  |  |  |  |  | 0.64 | 0.862 | 0.73 | 0.569 | 0.634 |
| NCI-H2170 | 0.973 | 0.994 | 0.91 | 1 | 1.12 | 1.07 | 0.873 | 0.989 | 0.957 | 0.982 | 0.9 | 0.865 | 1.11 | 0.301 | 0.296 | 0.342 | 0.312 | 0.281 |
| NCI-H1299 | 1.07 | 1.18 | 1.08 | 1.11 | 0.98 | 1.01 | 1.01 | 0.946 |  |  |  |  |  | 0.817 | 0.954 | 0.773 | 0.76 | 0.753 |
| EBC-1 | 0.0974 | 0.103 | 0.0984 | 0.102 | 0.216 | 0.201 | 0.191 | 0.175 |  |  |  |  |  | 0.41 | 0.386 | 0.32 | 0.343 | 0.262 |
| NCI-H2347 | 1.23 | 0.918 | 0.969 | 0.981 | 0.738 | 0.995 | 0.674 | 0.745 | 0.251 | 0.314 | 0.242 | 0.263 | 0.332 | 0.456 | 0.675 | 0.0164 | 0.858 | 0.472 |
| NCI-H1993 | 0.73 | 0.738 | 0.717 | 0.708 | 0.751 | 0.843 | 0.771 | 0.826 | 0.688 | 0.493 | 0.555 | 0.464 | 0.507 | 1.03 | 0.735 | 0.887 | 0.866 | 0.887 |
| NCI-H322M | 0.939 | 0.95 | 0.862 | 0.932 | 0.859 | 0.798 | 0.811 | 0.641 | 0.546 | 0.508 | 0.505 | 0.433 | 0.511 | 0.448 | 0.483 | 0.341 | 0.476 | 0.413 |
| NCI-H838 | 1.08 | 1.22 | 0.985 | 0.989 | 0.867 | 0.904 | 0.803 | 0.783 | 0.534 | 0.556 | 0.5 | 0.453 | 0.494 | 0.496 | 0.44 | 0.536 | 0.499 | 0.553 |
| NCI-H2342 | 1.01 | 1.04 | 0.921 | 1.03 |  |  |  |  | 0.845 | 0.848 | 0.87 | 0.941 | 0.957 |  |  |  |  |  |
| NCI-H1792 |  |  |  |  | 0.984 | 1.06 | 1.06 | 0.906 | 0.472 | 0.424 | 0.504 | 0.344 | 0.387 | 0.322 | 0.276 | 0.252 | 0.233 | 0.249 |
| HCC-44 |  |  |  |  | 0.883 | 0.907 | 0.749 | 0.787 | 1.03 | 0.98 | 1.09 | 1.07 | 1.05 | 0.613 | 0.562 | 0.477 | 0.679 | 0.556 |
| NCI-H1793 | 0.679 | 0.619 | 0.727 | 0.928 |  |  |  |  | 0.388 | 0.393 |  | 0.401 | 0.436 | 0.282 | 0.322 | 0.378 | 0.346 | 0.317 |
| A549 | 1 | 1.1 | 0.93 | 0.989 | 0.85 | 0.861 | 0.745 | 0.781 |  |  |  |  |  | 0.505 | 0.536 | 0.471 | 0.334 | 0.361 |
| NCI-H1563 | 0.898 | 0.82 | 0.868 | 0.963 | 0.974 | 0.942 | 0.889 | 0.841 |  |  |  |  |  | 0.689 | 0.618 | 0.686 | 0.615 | 0.633 |
| NCI-H1395 | 1.01 | 1.09 | 1.01 | 1.05 |  |  |  |  | 0.947 | 0.864 | 0.935 | 0.705 | 0.818 | 0.665 | 0.536 | 0.561 | 0.553 | 0.57 |
| SW 900 | 0.933 | 0.755 | 0.774 | 0.863 |  |  |  |  | 0.635 | 0.798 | 0.762 | 0.545 | 0.891 |  |  |  |  |  |
| IA-LM | 1.36 | 1.2 | 1.03 | 1.21 | 0.725 | 1.16 | 0.619 | 0.784 |  |  |  |  |  | 0.355 | 0.316 | 0.276 | 0.26 | 0.168 |
| NCI-H1703 | 0.329 | 0.42 | 0.393 | 0.326 | 0.694 | 0.652 | 0.621 | 0.633 |  |  |  |  |  | 0.228 | 0.254 | 0.226 | 0.208 | 0.224 |
| NCI-H1648 |  |  |  |  |  |  |  |  | 0.46 | 0.474 | 0.481 | 0.417 | 0.418 |  |  |  |  |  |

Reference: the supplement of paper PMC10307832
